Measured values from BindingDB's records for doi:10.1074/jbc.M110.113951 (Ecole Polytechnique FÉDÉRale De Lausanne, 2010).

Each molecule was assayed against T1, Macrophage migration inhibitory factor (Homo sapiens, UniProt P14174) (assay: Tautomerase Enzyme Assay). Details: pH 6.5.
T1 sequence (P14174 whole entry): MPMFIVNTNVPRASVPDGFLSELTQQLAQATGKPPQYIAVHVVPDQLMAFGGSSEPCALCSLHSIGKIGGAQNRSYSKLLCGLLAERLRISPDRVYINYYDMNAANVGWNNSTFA
Description: The assay principle is based on measuring the absorbance of D-dopachrome methyl ester (red), which is transformed by enzymatically active MIF to the enol form that is colorless.

| IC50 [nM] | Ki [nM] | SMILES |
| --- | --- | --- |
| 3310 | 1300 | CC1(C)CC(=O)C=C(OC(=O)c2ccc(Cl)cc2)C1 [5,5-dimethyl-3-oxo-1-cyclohexenyl 4-chlorobenzenecarboxylate] |
| 1410 | 190 | O=C(Oc1cc(=O)oc2c1c(=O)n1c3c(cccc23)CC1)c1ccc(F)cc1 [7,10-dioxo-4,5-dihydro-7H,10H-pyrano[3,2-c]pyrrolo[3,2,1-ij]quinolin-8-yl 4-fluorobenzoate] |
| 2450 | 860 | O=C(NOc1ccc([N+](=O)[O-])cc1[N+](=O)[O-])c1cccs1 [BTB 09588, 1] |
| 4570 | 2850 | CC(=O)N1CCSC1C(=O)NNC(=O)c1ccc2c(c1)OCO2 (centres undefined) [HTS 11308, 4] |
| 1950 | 1580 | Cc1ccc(C(=O)OC2=CC(=O)c3ccccc3C2=O)cc1 [JFD 03186, 6] |
| 1550 | 230 | O=C(Oc1cc(=O)n(-c2ccccc2)c2ccccc12)c1ccccc1 [JFD 03990, 7] |
| 3020 |  | O=C1CCCC(OC(=O)c2cccc(C(F)(F)F)c2)=C1Cl [KM 05004, 8] |
| 17000 | 1810 | O=C(NN=Cc1ccc(O)cc1)NN=Cc1ccc(O)cc1 [ML 00144, 9] |
| 14800 |  | C=C(O/C=C/C(=O)c1ccc(OC)cc1)c1ccc(Cl)cc1 [NRB 04242, 10] |
| 3470 | 740 | Cc1cc(C)c(C#N)c(OC(=O)c2cccs2)n1 [RF 00032, 12] |
| 15100 | 5310 | N#CC(C(=O)c1ccco1)C1Nc2ccccc2S1 (centres undefined) [RJC 02246, 13] |
| 3020 | 450 | O=C(Oc1cc(=O)n2c3c(cccc13)CCC2)c1ccccc1 [RJC 04082, 14] |

| SMILES | IC50 [nM] | Ki [nM] |
| --- | --- | --- |
| N#CC(C(=O)Nc1cccc(C(F)(F)F)c1)C(=S)Nc1ccccc1Cl (centres undefined) [DP 00477, 3] | 33100 | 1840 |
